Series [1] deals with SK-MEL-28 cells. As to the kind of experiment: Matrigel Boyden chamber invasion assay, SK-MEL-28. In kind it is cell-based, human. Particulars: SK-MEL-28, MTX 48 h, 1 μM. The procedure:
FIGS. 1A-J. Methotrexate up-regulates the expression of MITF. A, The MITF rheostat, and the two-step strategy for melanoma therapy: Drug A induces MITF, driving cells to be sensitive to Drug B. B, MTX (1 μM) increases MITF mRNA determined using quantitative and conventional RT-PCR from indicated cell lines. […] C, MTX (1 μM) induces MITF protein assayed by western blotting (WB) (*P<0.05). D, Immunofluorescence of control or MTX-treated (3 h) 501 MEL cells using anti-MITF and DAPI. E, Matrigel assay of control and MTX-treated SKMEL-28 cells (48 h, 1 μM) and IGR39 (72 h, 1 μM) cells. […] Scale bar refers to all panels. F, Chromatin immunoprecipitation on TYR and Pmel17 genes of control and MTX-treated (4 h, 1 μM) SK-MEL-28 cells with qRT-PCR after immunoprecipitation with IgG, or MITF and HDAC3 antibodies. Error bars indicate standard deviations of triplicates; experiment reproduced four times with similar results. G, Scanning electron micrographs of control and MTX-treated (1 μM, 24 h) SK-MEL-28 cells. H, Semiquantitative RT PCR of TYR, TYRP1, Pmel17, MART1, and Rab27a mRNA. […]
Invasion assays were performed using a cell invasion assay kit (BD Bioscience). […] The invading cells were stained and quantified measuring the surface occupied by stained cells with a cell counter plug-in of the Image J software.

The subject of series [2] is TYR. Description: TYR mRNA and protein expression in melanoma cell lines. In kind it is cell-based, human. Particulars: MTX 1 μM; SK-MEL-28 and multiple melanoma cell lines.
Method: H, Semiquantitative RT PCR of TYR, TYRP1, Pmel17, MART1, and Rab27a mRNA. SK-MEL-28 and siMITF-SK-MEL-28 cells were treated for 5 h with 1 μM MTX. mRNA levels are presented relative to β-actin mRNA and compared to their expression levels in untreated cells (1-fold).
mRNA extraction, cDNA synthesis, and conventional and qRT-PCR were performed under standard conditions. Primers were designed using Primer Express version 2.0 software (Applied Biosystems, Foster City, Calif.) and synthesized by Invitrogen (Barcelona, Spain).
Whole cell lysates were collected by adding SDS sample buffer. After extensive sonication, samples were boiled for 10 min and subjected to SDS-PAGE. Proteins were then transferred to nitrocellulose membranes and analyzed by immunoblotting (ECL Plus, GE Healthcare, Barcelona, Spain).
Series [3] concerns E2F1. Description: MALDI-TOF mass spectroscopy of immunoprecipitated E2F1 tryptic digests from SK-MEL-28 cells. In kind it is cell-based, human. Particulars: SK-MEL-28, 24 h, normalized to internal matrix control. How it is done:
SK-MEL-28 whole cell lysates were immunoprecipitated as described above but with two variations. First, the lysis and dilution buffers contained 2.5 μM trichostatin (a potent deacetylase inhibitor) and 20 μM trans-2-phenylcyclo-propylamine (an irreversible inhibitor of lysine-specific demethylase 1, LSD1). Second, the E2F1 antibody was covalently coupled to Dynabeads® (Invitrogen). After immunoprecipitation and elution, bound proteins were digested with trypsin according to standard procedures (Shevchenko). Data were recorded and processed with Agilent MassHunter Workstation Software for obtaining the Peptide Mass Fingerprint (PMF). The PMF result mass spectra were searched against the E2F1 protein sequence with carbamidomethylation of cysteine as fixed modification and methylation and acetylation of lysine residues, oxidation of methionine residues and phosphorylation of serine residues as variable modifications. Peptide mass tolerance was set to 50 ppm and a maximum of three missed cleavages was considered.

Series [4] can be described thus: Pharmacokinetic studies in mice plasma. Particulars: mouse, ip, male C57BL/6 mice, intra-peritoneal MTX 50 mg/kg alone or with TMECG 50 mg/kg. In kind it is in vivo. The procedure:
Pharmacokinetic studies were performed in male C57BL/6 mice after intra-peritoneal injection of MTX (50 mg/kg) and/or TMECG (50 mg/kg). Animals were anesthetized with CO2, and whole blood samples (˜0.5 mL) were collected via cardiac puncture. Samples for drug quantification were collected from different animals (in triplicate) at 5, 15, and 30 min and at 1, 2, 4, and 6 hr post-dose. Whole blood samples were transferred to lithium heparin blood collection tubes, and then centrifuged at 10,000 rpm for 10 min at 4° C. After plasma deproteinization with 5% trichloroacetic acid (TCA), MTX and TMECG plasma concentrations were calculated by HPLC. Pharmacokinetic parameters were estimated using the WinNonlin software package (WinNonlin Professional version 5.1., Pharsight Corporation, CA). WinNonlin model 200 was used for the non-compartmental analysis of the concentration-time data. The area under the plasma concentration-time curve (AUClast) from time 0 to the last point (tlast) with measurable concentration (Clast) was estimated using a linear trapezoidal approximation (AUClast). The elimination half-life (t1/2) was calculated as ln2/kel, where kel (elimination rate constant) was estimated using least squares regression analysis of the concentration-time data obtained during the terminal log-linear elimination phase. The maximum plasma concentrations (Cmax) were estimated directly from the data, with tmax being defined as the time of the first occurrence of Cmax.

By AUC is commonly meant concentration integrated over time. Usually Cmax stands for the highest concentration seen after dosing. What is called Tmax is the time at which the peak concentration occurs. Take `CN(Cc1cnc2nc(N)nc(N)c2n1)c1ccc(C(=O)N[C@@H](CCC(=O)O)C(=O)O)cc1` [MTX, methotrexate]: in series [1], the invasiveness result was “eliminated invasiveness”. In series [2], the “mRNA expression of MITF differentiation target TYR and TYR protein expression” value is given as “increased”. In addition, in series [3] (CN 11), the “Intensity of phosphorylated (S364) E2F1 peptide” value is listed as 24. The “Intensity of phosphorylated (S31) E2F1 peptide” value in series [3] (CN 46) came to 12. Moreover, the “Intensity of hyperacetylated (K117,120,125) E2F1 peptide” value in series [3] (CN 49) is on record as 329. The “Intensity of non-methylated (K185) E2F1 peptide (K)NHIQWLGSHTTVGVGGR(L)” value in series [3] (CN 64) is recorded as 379. Also, in series [3] (CN 295), the “Intensity of non-phosphorylated (S31) E2F1 peptide” value came to 312. The “Intensity of non-phosphorylated (S364) E2F1 peptide” value in series [3] (CN 318) is 310. In series [3] (CN 320), the “Intensity of non-acetylated E2F1 peptide (K)SPGEK(S)” value came out at 20. Also, in series [3] (CN 325), the “Intensity of non-acetylated E2F1 peptide (R)HPGK(G)” value is listed as 16. Besides, the “Intensity of methylated (K185) E2F1 peptide” value in series [3] (CN 355) worked out at 18. Also, the AUC in series [4] (read-out: MTX parameters AUC) amounted to 32000 ng·h/mL. Besides, the Cmax in series [4] (read-out: MTX parameters Cmax) amounted to 24600 ng/mL. Also, in series [4] (read-out: MTX parameters Tmax), the Tmax was 0.5 h. The half-life in series [4] (read-out: MTX parameters t1/2 (converted)) is 1.77 h.
